Consider 7 molecules from ChEMBL document CHEMBL1201862, “PubChem BioAssay data set” (2004).

The source made the active and inactive calls. A value given as a limit tells only on which side of the number the result lay.

Test [1] deals with HEK293. Description: SAR Analysis of small molecule inhibitors of B-cell specific antigen receptor-induced NF-kB activation in a HEK-293T cell line using a luminescence assay - Set 2. [Related pubchem assays (depositor defined):AID435022, AID435025, AID489021]. The following applies: Homo sapiens. The format is functional, cell-based.
The next test has as its system Jurkat. Description: SAR Analysis of small molecule inhibitors of […] specific antigen receptor-induced NF-kB activation in a Jurkat cell line using a luminescence assay - Set 3. [Related pubchem assays (depositor defined):AID435022, AID435025, AID465]. The note with it: Homo sapiens. The test is classed as functional, cell-based.
The subject of test [2] is HEK293. Description: cytotoxicity in HEK293T NF-kB-Luc cells, SAR follow-up, cytotoxicity control for NF-kB activator project, cell-based, resazurin fluorescence (AID 493251). The format is functional. The following applies: Homo sapiens. In general terms: The colour change of resazurin is a common sign of viable cells or microbes.
The subject of another test is MEF. The experiment in a line: SAR analysis of small molecule cytotoxicity of MazEF TA System activators in embryonic fibroblast (MEF) cells. [Related pubchem assays (depositor defined):AID504720, AID504743]. The following applies: Mus musculus. The format is functional.
Test [3] deals with T1, Endoribonuclease toxin MazF (Escherichia coli K-12, UniProt P0AE70).
T1 sequence (P0AE70 whole entry): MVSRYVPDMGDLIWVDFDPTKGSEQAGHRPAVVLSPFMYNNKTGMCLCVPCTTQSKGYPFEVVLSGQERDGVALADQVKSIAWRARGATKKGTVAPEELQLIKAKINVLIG
Description: MazF endoribonuclease activators, SAR follow-up, biochemical, fluorescence, single-stranded RNA substrate (AID 588603). The format is functional.

Test [4] has as its target T1, Endoribonuclease toxin MazF. Description: fluorescent RNA oligo signal without MazF, dose response, counter-screen for MazEF activator project, biochemical, fluorescence, single-stranded RNase substrate (AID 588502). The test is classed as functional. For orientation: The purpose of a counterscreen is to sort out artefacts and off-target activity.
Test [5] shares this target. Description: MazF toxin RNase activators, dose response, biochemical, fluorescence, single-stranded RNA substrate, uHTS hits (AID 588481). The format is functional.
For test [6] the target is unchanged. The experiment in a line: SAR analysis of small molecule activators of the MazEF TA System via a fluorescence-based single-stranded RNase assay counterscreen. [Related pubchem assays (depositor defined):AID504720, AID504743]. The format is functional.
Another test deals with T2, Caspase-3 (Homo sapiens, UniProt P42574).
T2 sequence (P42574 whole entry): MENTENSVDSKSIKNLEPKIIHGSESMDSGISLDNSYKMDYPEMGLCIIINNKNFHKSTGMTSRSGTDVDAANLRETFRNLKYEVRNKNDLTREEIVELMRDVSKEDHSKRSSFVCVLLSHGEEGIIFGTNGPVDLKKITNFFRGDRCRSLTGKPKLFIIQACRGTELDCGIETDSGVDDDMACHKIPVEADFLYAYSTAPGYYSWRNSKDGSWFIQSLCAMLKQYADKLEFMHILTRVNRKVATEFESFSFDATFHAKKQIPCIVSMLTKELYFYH
The format is functional.

For test [7], the target named is T3, Sentrin-specific protease 7 (Homo sapiens, UniProt Q9BQF6).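 Also: Luminescence-based dose-response confirmation of ultra-high-throughput screening hits, measuring inhibition of SENP7.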
T3 sequence (Q9BQF6 whole entry): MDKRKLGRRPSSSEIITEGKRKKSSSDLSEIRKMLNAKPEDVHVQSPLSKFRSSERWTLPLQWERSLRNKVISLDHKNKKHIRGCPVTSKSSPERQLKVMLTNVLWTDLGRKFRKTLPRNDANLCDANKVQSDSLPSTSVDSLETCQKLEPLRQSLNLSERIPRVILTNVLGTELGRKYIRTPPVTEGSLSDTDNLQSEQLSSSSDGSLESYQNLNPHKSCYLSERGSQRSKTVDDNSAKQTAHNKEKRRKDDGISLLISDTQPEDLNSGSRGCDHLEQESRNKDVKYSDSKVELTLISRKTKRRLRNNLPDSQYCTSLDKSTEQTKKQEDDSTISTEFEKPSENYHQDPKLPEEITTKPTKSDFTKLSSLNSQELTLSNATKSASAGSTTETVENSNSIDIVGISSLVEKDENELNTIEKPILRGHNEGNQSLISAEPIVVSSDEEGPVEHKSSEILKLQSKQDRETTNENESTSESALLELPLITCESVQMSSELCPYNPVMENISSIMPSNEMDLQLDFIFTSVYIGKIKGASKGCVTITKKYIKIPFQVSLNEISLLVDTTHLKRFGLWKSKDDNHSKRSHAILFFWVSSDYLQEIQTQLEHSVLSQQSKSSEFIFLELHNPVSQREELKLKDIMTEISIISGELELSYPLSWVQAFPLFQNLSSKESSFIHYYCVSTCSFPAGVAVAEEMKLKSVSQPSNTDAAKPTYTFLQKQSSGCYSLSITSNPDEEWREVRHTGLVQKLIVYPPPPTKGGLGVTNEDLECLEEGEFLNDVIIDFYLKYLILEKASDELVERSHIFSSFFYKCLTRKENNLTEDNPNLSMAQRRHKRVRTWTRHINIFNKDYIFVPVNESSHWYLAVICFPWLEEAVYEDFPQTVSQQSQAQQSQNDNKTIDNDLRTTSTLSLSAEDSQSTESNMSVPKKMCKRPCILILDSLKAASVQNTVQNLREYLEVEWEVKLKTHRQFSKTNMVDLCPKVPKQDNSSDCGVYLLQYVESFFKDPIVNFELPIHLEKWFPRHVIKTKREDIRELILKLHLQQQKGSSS
The format is functional.

In test [8] the target is T4, Sentrin-specific protease 6 (Homo sapiens, UniProt Q9GZR1).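 Also: Luminescence-based dose-response confirmatory assay of SENP6 inhibition, following up an ultra-high-throughput screen.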
T4 sequence (Q9GZR1 whole entry): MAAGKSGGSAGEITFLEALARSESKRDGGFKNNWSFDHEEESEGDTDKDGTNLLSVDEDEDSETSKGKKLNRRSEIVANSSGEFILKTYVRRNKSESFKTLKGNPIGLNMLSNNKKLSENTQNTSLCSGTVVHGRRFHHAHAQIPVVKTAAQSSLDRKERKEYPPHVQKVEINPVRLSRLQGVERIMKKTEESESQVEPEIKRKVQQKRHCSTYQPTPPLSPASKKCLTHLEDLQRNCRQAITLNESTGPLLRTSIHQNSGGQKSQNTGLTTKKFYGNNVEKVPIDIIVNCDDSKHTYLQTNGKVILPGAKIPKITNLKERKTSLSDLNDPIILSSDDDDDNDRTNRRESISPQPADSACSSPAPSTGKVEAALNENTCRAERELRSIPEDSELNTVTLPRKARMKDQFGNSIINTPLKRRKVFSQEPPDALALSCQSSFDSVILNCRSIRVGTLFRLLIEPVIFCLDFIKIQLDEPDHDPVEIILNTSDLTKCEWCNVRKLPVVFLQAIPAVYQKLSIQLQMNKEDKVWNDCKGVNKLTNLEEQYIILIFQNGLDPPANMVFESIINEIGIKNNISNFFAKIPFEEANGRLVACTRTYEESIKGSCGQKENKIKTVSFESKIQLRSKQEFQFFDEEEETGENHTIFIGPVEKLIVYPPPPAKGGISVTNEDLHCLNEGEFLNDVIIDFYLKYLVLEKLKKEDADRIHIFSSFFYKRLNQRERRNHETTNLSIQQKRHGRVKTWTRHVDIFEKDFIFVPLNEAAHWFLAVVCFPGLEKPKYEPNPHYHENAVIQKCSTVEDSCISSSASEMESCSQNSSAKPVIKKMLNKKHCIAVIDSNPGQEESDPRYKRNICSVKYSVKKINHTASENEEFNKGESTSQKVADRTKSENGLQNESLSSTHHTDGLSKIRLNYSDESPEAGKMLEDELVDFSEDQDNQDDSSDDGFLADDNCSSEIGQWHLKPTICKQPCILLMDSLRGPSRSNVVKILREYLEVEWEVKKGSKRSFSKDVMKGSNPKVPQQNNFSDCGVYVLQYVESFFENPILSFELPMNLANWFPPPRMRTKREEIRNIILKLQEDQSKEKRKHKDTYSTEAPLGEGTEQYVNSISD
The test is classed as functional.

Test [9] addresses T5, Sentrin-specific protease 8 (Homo sapiens, UniProt Q96LD8).
T5 sequence (Q96LD8 whole entry): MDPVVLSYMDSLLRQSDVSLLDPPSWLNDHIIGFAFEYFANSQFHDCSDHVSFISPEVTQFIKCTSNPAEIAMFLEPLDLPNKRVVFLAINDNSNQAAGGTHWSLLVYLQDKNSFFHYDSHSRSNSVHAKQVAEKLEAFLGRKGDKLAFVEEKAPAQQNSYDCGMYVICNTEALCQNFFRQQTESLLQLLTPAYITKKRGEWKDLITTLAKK
The test is classed as functional.

The subject of test [10] is Streptococcus sp. 'group A'. The experiment in a line: growth inhibition of control SK(-) GAS strain, dose response, counter-screen for streptokinase expression inhibitor project, luminescence, kanamycin, BacTiterGlo, confirmation (AID 1900). The format is functional, organism-based.
The target in another test is Cysteine protease ATG4B (Homo sapiens, UniProt Q9Y4P1). The test is classed as functional.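 Also: Fluorescence-based dose-response confirmation assay measuring inhibition of ATG4B activity.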
Chain of Cysteine protease ATG4B (Q9Y4P1 whole entry): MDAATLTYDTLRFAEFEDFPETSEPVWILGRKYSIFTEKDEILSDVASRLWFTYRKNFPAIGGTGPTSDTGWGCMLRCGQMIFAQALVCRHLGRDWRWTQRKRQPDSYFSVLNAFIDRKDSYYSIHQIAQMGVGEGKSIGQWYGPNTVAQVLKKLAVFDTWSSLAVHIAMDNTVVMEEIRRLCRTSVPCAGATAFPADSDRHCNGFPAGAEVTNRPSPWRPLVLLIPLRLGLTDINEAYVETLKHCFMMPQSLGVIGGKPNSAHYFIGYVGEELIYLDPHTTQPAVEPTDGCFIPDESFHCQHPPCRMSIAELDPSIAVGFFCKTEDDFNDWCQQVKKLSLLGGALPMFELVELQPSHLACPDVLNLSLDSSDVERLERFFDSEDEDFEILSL
The next test deals with Streptococcus. The experiment in a line: Group A Streptococcus viability loss, dose response, counter-screen for streptokinase expression inhibitor project, luminescence, BacTiterGlo (AID 1915).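 Also: potency for reduction of bacterial viability or growth.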 The format is functional, organism-based.
The target in another test is T6, Streptokinase A (Streptococcus pyogenes serotype M1, UniProt P10520).
T6 sequence (P10520 whole entry): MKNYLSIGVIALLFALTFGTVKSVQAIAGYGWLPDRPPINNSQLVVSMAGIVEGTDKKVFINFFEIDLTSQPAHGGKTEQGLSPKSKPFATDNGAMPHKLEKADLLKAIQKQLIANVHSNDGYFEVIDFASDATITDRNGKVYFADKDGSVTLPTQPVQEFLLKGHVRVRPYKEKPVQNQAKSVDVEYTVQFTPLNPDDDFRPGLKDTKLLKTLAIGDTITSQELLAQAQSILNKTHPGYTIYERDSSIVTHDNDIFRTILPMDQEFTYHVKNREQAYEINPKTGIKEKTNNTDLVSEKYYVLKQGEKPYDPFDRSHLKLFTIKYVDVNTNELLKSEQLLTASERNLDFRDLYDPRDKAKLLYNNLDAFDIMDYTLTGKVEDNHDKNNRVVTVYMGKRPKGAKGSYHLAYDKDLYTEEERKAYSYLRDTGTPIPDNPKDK
The experiment in a line: S. pyogenes streptokinase expression inhibitors, potency, dose response, plasminogen activation absorbance, OD405 (AID 1914).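 Also: secreted streptokinase activity via plasminogen activation per viability signal from cell pellet.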 The test is classed as functional, Streptococcus pyogenes M1 GAS.

Another test deals with Phospholipase A2 (Homo sapiens, UniProt P04054). The format is functional.
Chain of Phospholipase A2 (P04054 whole entry): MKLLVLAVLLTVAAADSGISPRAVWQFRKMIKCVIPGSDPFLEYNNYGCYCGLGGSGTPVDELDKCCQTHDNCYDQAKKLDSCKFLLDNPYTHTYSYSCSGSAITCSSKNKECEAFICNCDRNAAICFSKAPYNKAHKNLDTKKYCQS

One may read the IC50 as the midpoint of a concentration-inhibition curve. `CCOc1ccc(-c2nc(CSCC(=O)NCc3ccc(C)cc3)c(C)o2)cc1`: the IC50 in the test with HEK293 [1] was > 80 µM (inactive); with Jurkat it was 48.9 µM (inactive); in the test with HEK293 [2], > 80 µM (inactive).

Broadly, the CC50 is the concentration at which the toxic effect on the cells reaches its halfway point. What is called EC50 is the concentration that produces a half-maximal response. On to `Cc1[nH]c2ccccc2c1/C=C/c1nc2ccccc2c(=O)n1-c1ccc([N+](=O)[O-])cc1`, for which, in the test with MEF, the CC50 is > 99 µM (inactive). Moreover, the EC50 in [3], in test [4], in test [5] and in test [6] was > 99 µM (inactive) throughout.

Consider `CCSc1nnc(NC(=O)c2ccc(C)cc2)s1`, for which the 50% inhibitory concentration (IC50) at Caspase-3 is 28 µM (active); in [7] it was 9.7 µM (active); in test [8], > 100 µM (inactive); in test [9] it was > 100 µM (inactive).

Turning to `COC(=O)/C=C1\SC(Nc2ccc(Cl)c(Cl)c2)=NC1=O`, the concentration for a half-maximal effect (EC50) in test [10] was 10 µM (active); in the test on Streptococcus, 16.9 µM (active); at Streptokinase A, 15.4 µM (active). The results for the IC50 on Cysteine protease ATG4B and at Phospholipase A2 were 16.9 µM (active) and 11 µM (active), respectively.

As for `Cc1ccc2[nH]c(-c3ccc(NC(=O)c4ccco4)cc3)nc2c1`, the 50% inhibitory concentration (IC50) on Caspase-3 is 29.6 µM (active); in test [7], 6.23 µM (active); in test [8], > 100 µM (inactive); in test [9], 30.8 µM (active).

As for `C=CCNC(=O)CCc1nc(-c2ccc(C(C)(C)C)cc2)no1`, the IC50 in the test on HEK293 [1] is 5.3 µM (active); with Jurkat, 25.2 µM (inactive); with HEK293 [2] it was > 80 µM (inactive).

As for `O=[N+]([O-])c1ccc(S(=O)(=O)N/N=C/c2c[nH]c3ccccc23)cc1`, the CC50 with MEF was > 99 µM (inactive). Moreover, the EC50 in [3] is 56.8 µM (inactive); in test [6], > 99 µM (inactive).
